{"source": "the supplement of paper PMC10307832", "assay_in_all_cases": "relative viability (nuclei count vs DMSO), 5 days (fraction); higher = more cells survive", "key": {"[1]": {"system": "NCI-H1651", "outline": "(§1)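 Nuclei were stained with Hoechst during a one-step fixation (final 0.05% Triton X-100, 1% formaldehyde, 1 ug/ml Hoechst) carried out 5 days after dosing, then counted on 4× images. The cells, lung cancer lines in 1536-well plates, had been dosed by pin tool the day after seeding with one drug alone or a fixed anchor-drug dose plus five library-drug doses (not always all listed) in √10 steps. Relative viability is the nuclei count in treated wells divided by that in vehicle wells, and each value is the median of duplicate plates.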"}, "[2]": {"system": "SW 1573", "outline": "as §1"}, "[3]": {"system": "NCI-H1944", "outline": "as §1"}, "[4]": {"system": "ChaGo-K-1", "outline": "as §1"}, "[5]": {"system": "NCI-H2087", "outline": "as §1"}, "[6]": {"system": "NCI-H3122", "outline": "as §1"}, "[7]": {"system": "LCLC-97TM1", "outline": "as §1"}, "[8]": {"system": "EMC-BAC-2", "outline": "as §1"}, "[9]": {"system": "PC-14", "outline": "as §1"}, "[10]": {"system": "UMC-11", "outline": "as §1"}, "[11]": {"system": "NCI-H2405", "outline": "as §1"}, "[12]": {"system": "NCI-H596", "outline": "as §1"}, "[13]": {"system": "NCI-H2023", "outline": "as §1"}, "[14]": {"system": "NCI-H1915", "outline": "as §1"}, "[15]": {"system": "NCI-H322M", "outline": "as §1"}, "[16]": {"system": "NCI-H2126", "outline": "as §1"}, "[17]": {"system": "NCI-H838", "outline": "as §1"}, "[18]": {"system": "NCI-H1734", "outline": "as §1"}, "[19]": {"system": "NCI-H441", "outline": "as §1"}, "[20]": {"system": "LXF-289", "outline": "as §1"}, "[21]": {"system": "NCI-H1793", "outline": "as §1"}, "[22]": {"system": "NCI-H1395", "outline": "as §1"}}, "data": [{"smiles": "Nc1cccc2c1CN(C1CCC(=O)NC1=O)C2=O", "note": "(stereo not given) [Lenalidomide] + CC1(C)CCC(c2ccc(Cl)cc2)=C(CN2CCN(c3ccc(C(=O)NS(=O)(=O)c4ccc(N[C@H](CCN5CCOCC5)CSc5ccccc5)c(S(=O)(=O)C(F)(F)F)c4)cc3)CC2)C1 [Navitoclax] (partner 0.5 µM)", "values": [{"measurement": "relative viability", "setting": "[1]; first compound 0.253 µM", "value": 1.04}, {"measurement": "relative viability", "setting": "[1]; first compound 0.8 µM", "value": 0.931}, {"measurement": "relative viability", "setting": "[1]; first compound 2.53 µM", "value": 1.25}, {"measurement": "relative viability", "setting": "[1]; first compound 8 µM", "value": 0.898}, {"measurement": "relative viability", "setting": "[2]; first compound 0.253 µM", "value": 0.931}, {"measurement": "relative viability", "setting": "[2]; first compound 0.8 µM", "value": 0.911}, {"measurement": "relative viability", "setting": "[2]; first compound 2.53 µM", "value": 1.07}, {"measurement": "relative viability", "setting": "[2]; first compound 8 µM", "value": 0.926}, {"measurement": "relative viability", "setting": "[3]; first compound 0.253 µM", "value": 0.984}, {"measurement": "relative viability", "setting": "[3]; first compound 0.8 µM", "value": 1.08}, {"measurement": "relative viability", "setting": "[3]; first compound 2.53 µM", "value": 1.02}, {"measurement": "relative viability", "setting": "[3]; first compound 8 µM", "value": 0.873}, {"measurement": "relative viability", "setting": "[4]; first compound 0.253 µM", "value": 1.08}, {"measurement": "relative viability", "setting": "[4]; first compound 2.53 µM", "value": 1.05}, {"measurement": "relative viability", "setting": "[4]; first compound 8 µM", "value": 0.949}, {"measurement": "relative viability", "setting": "[5]; first compound 0.253 µM", "value": 1.03}, {"measurement": "relative viability", "setting": "[5]; first compound 0.8 µM", "value": 0.971}, {"measurement": "relative viability", "setting": "[5]; first compound 2.53 µM", "value": 0.962}, {"measurement": "relative viability", "setting": "[5]; first compound 8 µM", "value": 1.06}, {"measurement": "relative viability", "setting": "[6]; first compound 0.253 µM", "value": 1}, {"measurement": "relative viability", "setting": "[6]; first compound 0.8 µM", "value": 1.08}, {"measurement": "relative viability", "setting": "[6]; first compound 2.53 µM", "value": 0.997}, {"measurement": "relative viability", "setting": "[6]; first compound 8 µM", "value": 1.07}, {"measurement": "relative viability", "setting": "[7]; first compound 0.8 µM", "value": 0.544}, {"measurement": "relative viability", "setting": "[7]; first compound 2.53 µM", "value": 0.502}, {"measurement": "relative viability", "setting": "[7]; first compound 8 µM", "value": 0.407}, {"measurement": "relative viability", "setting": "[8]; first compound 0.253 µM", "value": 1.18}, {"measurement": "relative viability", "setting": "[8]; first compound 0.8 µM", "value": 1.15}, {"measurement": "relative viability", "setting": "[8]; first compound 2.53 µM", "value": 1.33}, {"measurement": "relative viability", "setting": "[8]; first compound 8 µM", "value": 0.975}, {"measurement": "relative viability", "setting": "[9]; first compound 0.253 µM", "value": 0.907}, {"measurement": "relative viability", "setting": "[9]; first compound 0.8 µM", "value": 1.02}, {"measurement": "relative viability", "setting": "[9]; first compound 2.53 µM", "value": 1.08}, {"measurement": "relative viability", "setting": "[9]; first compound 8 µM", "value": 1.05}, {"measurement": "relative viability", "setting": "[10]; first compound 0.253 µM", "value": 0.317}, {"measurement": "relative viability", "setting": "[10]; first compound 0.8 µM", "value": 0.28}, {"measurement": "relative viability", "setting": "[10]; first compound 2.53 µM", "value": 0.346}, {"measurement": "relative viability", "setting": "[10]; first compound 8 µM", "value": 0.277}, {"measurement": "relative viability", "setting": "[11]; first compound 0.253 µM", "value": 0.83}, {"measurement": "relative viability", "setting": "[11]; first compound 0.8 µM", "value": 0.921}, {"measurement": "relative viability", "setting": "[11]; first compound 2.53 µM", "value": 0.793}, {"measurement": "relative viability", "setting": "[11]; first compound 8 µM", "value": 0.802}, {"measurement": "relative viability", "setting": "[12]; first compound 0.253 µM", "value": 0.951}, {"measurement": "relative viability", "setting": "[12]; first compound 0.8 µM", "value": 0.795}, {"measurement": "relative viability", "setting": "[12]; first compound 2.53 µM", "value": 0.989}, {"measurement": "relative viability", "setting": "[12]; first compound 8 µM", "value": 0.879}, {"measurement": "relative viability", "setting": "[13]; first compound 0.253 µM", "value": 1}, {"measurement": "relative viability", "setting": "[13]; first compound 0.8 µM", "value": 1.13}, {"measurement": "relative viability", "setting": "[13]; first compound 2.53 µM", "value": 1.05}, {"measurement": "relative viability", "setting": "[13]; first compound 8 µM", "value": 1.01}, {"measurement": "relative viability", "setting": "[14]; first compound 0.253 µM", "value": 0.775}, {"measurement": "relative viability", "setting": "[14]; first compound 0.8 µM", "value": 0.782}, {"measurement": "relative viability", "setting": "[14]; first compound 2.53 µM", "value": 0.816}, {"measurement": "relative viability", "setting": "[14]; first compound 8 µM", "value": 0.835}, {"measurement": "relative viability", "setting": "[15]; first compound 0.253 µM", "value": 1}, {"measurement": "relative viability", "setting": "[15]; first compound 0.8 µM", "value": 1.42}, {"measurement": "relative viability", "setting": "[15]; first compound 2.53 µM", "value": 1.17}, {"measurement": "relative viability", "setting": "[15]; first compound 8 µM", "value": 0.965}, {"measurement": "relative viability", "setting": "[16]; first compound 0.253 µM", "value": 0.798}, {"measurement": "relative viability", "setting": "[16]; first compound 0.8 µM", "value": 0.907}, {"measurement": "relative viability", "setting": "[16]; first compound 2.53 µM", "value": 0.815}, {"measurement": "relative viability", "setting": "[16]; first compound 8 µM", "value": 0.688}, {"measurement": "relative viability", "setting": "[17]; first compound 0.253 µM", "value": 1.15}, {"measurement": "relative viability", "setting": "[17]; first compound 0.8 µM", "value": 1.09}, {"measurement": "relative viability", "setting": "[17]; first compound 2.53 µM", "value": 1.29}, {"measurement": "relative viability", "setting": "[17]; first compound 8 µM", "value": 1.1}, {"measurement": "relative viability", "setting": "[18]; first compound 0.253 µM", "value": 0.802}, {"measurement": "relative viability", "setting": "[18]; first compound 0.8 µM", "value": 0.831}, {"measurement": "relative viability", "setting": "[18]; first compound 2.53 µM", "value": 1.01}, {"measurement": "relative viability", "setting": "[18]; first compound 8 µM", "value": 0.796}, {"measurement": "relative viability", "setting": "[19]; first compound 0.253 µM", "value": 0.507}, {"measurement": "relative viability", "setting": "[19]; first compound 0.8 µM", "value": 0.348}, {"measurement": "relative viability", "setting": "[19]; first compound 2.53 µM", "value": 0.52}, {"measurement": "relative viability", "setting": "[19]; first compound 8 µM", "value": 0.513}, {"measurement": "relative viability", "setting": "[20]; first compound 0.253 µM", "value": 0.963}, {"measurement": "relative viability", "setting": "[20]; first compound 0.8 µM", "value": 0.971}, {"measurement": "relative viability", "setting": "[20]; first compound 2.53 µM", "value": 1.01}, {"measurement": "relative viability", "setting": "[20]; first compound 8 µM", "value": 1.06}, {"measurement": "relative viability", "setting": "[21]; first compound 0.253 µM", "value": 0.349}, {"measurement": "relative viability", "setting": "[21]; first compound 0.8 µM", "value": 0.449}, {"measurement": "relative viability", "setting": "[21]; first compound 2.53 µM", "value": 0.426}, {"measurement": "relative viability", "setting": "[21]; first compound 8 µM", "value": 0.315}, {"measurement": "relative viability", "setting": "[22]; first compound 0.253 µM", "value": 1.2}, {"measurement": "relative viability", "setting": "[22]; first compound 2.53 µM", "value": 1.31}, {"measurement": "relative viability", "setting": "[22]; first compound 8 µM", "value": 0.978}]}]}
